{
  "source": "paper PMC8402619",
  "about": "(Viruses, 2021)",
  "key": {"CYP2C9": {"target": "CYP2C9 (Homo sapiens, UniProt P11712)", "sequence (P11712 whole entry)": "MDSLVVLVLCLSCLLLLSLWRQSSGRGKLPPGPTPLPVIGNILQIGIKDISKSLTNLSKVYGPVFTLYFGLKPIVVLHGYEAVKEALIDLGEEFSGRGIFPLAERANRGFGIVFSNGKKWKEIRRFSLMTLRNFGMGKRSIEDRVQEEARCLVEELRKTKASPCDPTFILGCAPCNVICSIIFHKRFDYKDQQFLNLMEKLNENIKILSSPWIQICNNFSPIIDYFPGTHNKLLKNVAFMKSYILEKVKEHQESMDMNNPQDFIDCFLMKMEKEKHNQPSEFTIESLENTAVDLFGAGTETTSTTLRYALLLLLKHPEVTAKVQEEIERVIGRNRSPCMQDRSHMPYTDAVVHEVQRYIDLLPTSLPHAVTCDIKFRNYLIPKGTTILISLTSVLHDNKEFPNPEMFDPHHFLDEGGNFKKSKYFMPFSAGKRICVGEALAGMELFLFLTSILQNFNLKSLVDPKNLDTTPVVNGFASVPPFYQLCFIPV", "assay": "Reversible CYP inhibition in pooled human liver microsomes", "type": "in vitro ADME"}, "OCT2": {"target": "T1, OCT2 (Homo sapiens, UniProt O15244)", "T1 construct": "expressed in transfected cells; host or cells: CHO-K1", "T1 sequence (O15244 1-555)": "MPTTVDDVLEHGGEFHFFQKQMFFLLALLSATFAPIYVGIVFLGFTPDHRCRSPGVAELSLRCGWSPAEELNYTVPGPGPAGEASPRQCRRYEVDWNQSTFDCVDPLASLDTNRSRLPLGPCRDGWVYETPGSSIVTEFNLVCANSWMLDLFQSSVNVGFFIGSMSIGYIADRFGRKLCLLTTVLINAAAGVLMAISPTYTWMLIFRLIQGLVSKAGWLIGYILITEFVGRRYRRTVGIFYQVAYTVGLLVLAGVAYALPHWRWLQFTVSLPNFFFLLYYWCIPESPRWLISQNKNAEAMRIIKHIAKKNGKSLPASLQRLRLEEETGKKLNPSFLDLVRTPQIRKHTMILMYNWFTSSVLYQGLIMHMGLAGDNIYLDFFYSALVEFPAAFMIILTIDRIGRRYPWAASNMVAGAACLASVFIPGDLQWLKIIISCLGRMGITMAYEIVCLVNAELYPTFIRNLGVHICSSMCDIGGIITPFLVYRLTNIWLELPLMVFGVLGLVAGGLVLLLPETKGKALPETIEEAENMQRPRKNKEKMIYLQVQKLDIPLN", "assay": "Islatravir uptake as substrate, CHO-K1 vs CHO-K1-OCT2 cells", "type": "in vitro ADME"}, "OAT1": {"target": "T2, OAT1 (Homo sapiens, UniProt Q4U2R8)", "T2 construct": "expressed in transfected cells; host or cells: MDCKII", "T2 sequence (Q4U2R8 1-563)": "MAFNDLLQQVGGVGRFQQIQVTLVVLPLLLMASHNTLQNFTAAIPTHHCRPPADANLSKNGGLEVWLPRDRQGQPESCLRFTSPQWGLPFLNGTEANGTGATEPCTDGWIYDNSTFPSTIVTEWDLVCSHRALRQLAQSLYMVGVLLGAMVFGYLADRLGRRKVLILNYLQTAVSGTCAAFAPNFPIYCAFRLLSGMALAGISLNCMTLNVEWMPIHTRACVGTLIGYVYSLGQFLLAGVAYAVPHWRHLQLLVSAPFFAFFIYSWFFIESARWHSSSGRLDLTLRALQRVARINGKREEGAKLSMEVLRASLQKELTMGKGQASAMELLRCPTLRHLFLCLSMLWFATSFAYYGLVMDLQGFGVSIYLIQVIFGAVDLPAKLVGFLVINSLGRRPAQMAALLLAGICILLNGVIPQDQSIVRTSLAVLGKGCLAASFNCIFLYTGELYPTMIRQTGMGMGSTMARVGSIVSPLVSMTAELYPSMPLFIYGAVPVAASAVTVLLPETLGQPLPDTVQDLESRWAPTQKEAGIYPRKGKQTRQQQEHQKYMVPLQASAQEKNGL", "assay": "Inhibition of transporter-mediated probe uptake in MDCKII-OAT1 cells", "type": "in vitro ADME"}, "BCRP": {"target": "T3, BCRP (Homo sapiens, UniProt Q9UNQ0)", "T3 sequence (Q9UNQ0 1-655)": "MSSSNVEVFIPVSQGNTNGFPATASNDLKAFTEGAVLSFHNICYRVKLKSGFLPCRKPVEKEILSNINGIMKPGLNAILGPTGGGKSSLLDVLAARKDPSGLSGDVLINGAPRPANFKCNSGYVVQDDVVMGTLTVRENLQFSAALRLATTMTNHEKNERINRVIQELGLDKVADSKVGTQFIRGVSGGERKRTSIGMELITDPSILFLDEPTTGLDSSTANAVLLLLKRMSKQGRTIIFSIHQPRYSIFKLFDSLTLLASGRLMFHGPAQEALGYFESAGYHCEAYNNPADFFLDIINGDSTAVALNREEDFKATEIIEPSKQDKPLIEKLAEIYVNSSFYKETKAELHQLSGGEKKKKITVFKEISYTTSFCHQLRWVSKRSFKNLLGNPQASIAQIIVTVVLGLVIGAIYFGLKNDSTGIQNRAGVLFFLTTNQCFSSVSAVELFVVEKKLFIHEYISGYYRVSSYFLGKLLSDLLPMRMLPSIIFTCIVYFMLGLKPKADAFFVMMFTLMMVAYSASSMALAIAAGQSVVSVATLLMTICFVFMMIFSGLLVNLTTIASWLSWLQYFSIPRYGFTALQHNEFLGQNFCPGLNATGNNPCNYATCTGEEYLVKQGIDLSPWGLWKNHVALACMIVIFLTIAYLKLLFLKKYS", "assay": "Bidirectional transport across MDCKII and MDCKII-BCRP cell monolayers", "type": "in vitro ADME", "design": "expressed in transfected cells; host or cells: MDCKII", "conditions": "for efflux ratio at 3 h, 2 µM: human"}, "CYP2C19": {"target": "CYP2C19 (Homo sapiens, UniProt P33261)", "sequence (P33261 whole entry)": "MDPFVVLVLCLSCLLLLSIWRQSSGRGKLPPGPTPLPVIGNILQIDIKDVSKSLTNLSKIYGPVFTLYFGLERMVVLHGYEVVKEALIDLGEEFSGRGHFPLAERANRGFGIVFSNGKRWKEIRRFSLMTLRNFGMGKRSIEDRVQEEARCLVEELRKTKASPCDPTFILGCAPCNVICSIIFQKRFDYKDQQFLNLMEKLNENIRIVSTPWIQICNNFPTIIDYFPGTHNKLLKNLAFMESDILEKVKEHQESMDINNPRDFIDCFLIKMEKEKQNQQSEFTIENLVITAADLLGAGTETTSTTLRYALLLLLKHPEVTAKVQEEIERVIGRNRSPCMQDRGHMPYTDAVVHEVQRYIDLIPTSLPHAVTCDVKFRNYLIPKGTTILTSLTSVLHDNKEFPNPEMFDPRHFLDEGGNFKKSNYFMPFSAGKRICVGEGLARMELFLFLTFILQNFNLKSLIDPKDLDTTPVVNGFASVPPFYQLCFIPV", "assay": "Reversible CYP inhibition in pooled human liver microsomes", "type": "in vitro ADME"}, "[1]": {"assay": "Plasma protein binding by equilibrium dialysis, monkey plasma", "type": "in vitro ADME", "conditions": "pH 7.4"}, "CYP2D6": {"target": "CYP2D6 (Homo sapiens, UniProt P10635)", "sequence (P10635 whole entry)": "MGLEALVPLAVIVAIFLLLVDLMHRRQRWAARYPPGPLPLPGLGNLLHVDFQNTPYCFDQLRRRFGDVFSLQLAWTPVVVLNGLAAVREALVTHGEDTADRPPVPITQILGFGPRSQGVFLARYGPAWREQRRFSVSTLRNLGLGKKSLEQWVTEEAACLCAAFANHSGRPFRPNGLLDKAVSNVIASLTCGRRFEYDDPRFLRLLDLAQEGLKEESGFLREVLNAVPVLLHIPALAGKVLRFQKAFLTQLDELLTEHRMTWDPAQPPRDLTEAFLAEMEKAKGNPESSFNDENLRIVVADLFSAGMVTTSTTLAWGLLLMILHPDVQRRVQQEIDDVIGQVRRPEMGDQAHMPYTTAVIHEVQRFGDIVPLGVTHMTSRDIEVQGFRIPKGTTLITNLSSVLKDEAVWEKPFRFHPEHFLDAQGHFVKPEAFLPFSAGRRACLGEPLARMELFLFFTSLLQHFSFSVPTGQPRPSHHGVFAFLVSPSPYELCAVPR", "assay": "Time-dependent CYP inhibition in pooled human liver microsomes", "type": "in vitro ADME"}, "[2]": {"conditions": "cited from earlier work"}},
  "note": "Where two headings read alike, the source gives them in different places.",
  "data": [
    {"molecule": "C#C[C@]1(CO)O[C@@H](n2cnc3c(N)nc(F)nc32)C[C@@H]1O", "note": "[Islatravir, 4′-Ethynyl-2-fluoro-2′-deoxyadenosine]", "values": [
      {"measurement": "DDI Potential", "setting": "CYP2C9; CYP2C9 reversible inhibition, FDA, EMA, PMDA guidance", "value": "Low risk"},
      {"measurement": "Maximum Unbound Plasma Concentration (Imax,u) to Ki,u Ratio", "setting": "CYP2C9; CYP2C9 reversible, 60 mg, Cmax 1.01 µM, fu,p 0.96, Ki,u = IC50/2", "value": "<0.019", "unit": "µM"},
      {"measurement": "IC50", "setting": "CYP2C9; reversible, CYP2C9 diclofenac 4′-hydroxylation, read-out: Islatravir IC50", "value": "> 100", "unit": "µM"},
      {"measurement": "Islatravir Uptake Transporter-Expressing Cells", "setting": "OCT2; CHO-K1-OCT2, 1 µM [3H]islatravir, 5 min, mean ± SD, n = 3", "value": "0.79 ± 0.14", "unit": "pmole/10^6 Cells"},
      {"measurement": "Fold-Difference", "setting": "OCT2; OCT2, uptake into transporter-expressing cells to control cells, 5 min", "value": 0.81},
      {"measurement": "Islatravir Uptake Control Cells", "setting": "OCT2; OCT2 row, CHO-K1 control cells, 1 µM [3H]islatravir, 5 min, mean ± SD, n = 3", "value": "0.97 ± 0.01", "unit": "pmole/10^6 Cells"},
      {"measurement": "Conclusions", "setting": "OCT2; OCT2 substrate assessment", "value": "Non-substrate"},
      {"measurement": "IC50", "setting": "OAT1; OAT1-mediated cidofovir uptake, read-out: Islatravir IC50", "value": "> 100", "unit": "µM"},
      {"measurement": "Maximum Unbound Plasma Concentration (Imax,u) to IC50 Ratio", "setting": "OAT1; OAT1, 60 mg, Cmax 1.01 µM, fu,p 0.96", "value": "<0.010", "unit": "µM"},
      {"measurement": "DDI Potential", "setting": "OAT1; OAT1 inhibition, FDA, EMA, PMDA guidance", "value": "Low risk"},
      {"measurement": "BCRP substrate assessment", "setting": "BCRP; bi-directional transport assay", "value": "substrate of BCRP"},
      {"measurement": "Papp at 3 h, 2 µM", "setting": "BCRP; dog, MDCK, MDCKII cells, read-out: apparent permeability coefficient (Papp)", "value": "1.6 to 2.2", "unit": "×10⁻⁶ cm/s"},
      {"measurement": "efflux ratio at 2 µM", "setting": "BCRP; dog, MDCK, islatravir 2 µM, untransfected control cells, mean ± SEM, read-out: mean Papp(B to A)/Papp(A to B) efflux ratio", "value": "0.8 ± 0.2"},
      {"measurement": "efflux ratio at 3 h, 2 µM", "setting": "BCRP; islatravir 2 µM, BCRP-transfected monolayers with Ko143 (5 µM), mean ± SEM, read-out: mean Papp(B to A)/Papp(A to B) efflux ratio", "value": "0.9 ± 0.1"},
      {"measurement": "efflux ratio at 3 h, 2 µM", "setting": "BCRP; islatravir 2 µM, BCRP-transfected monolayers, mean ± SEM, read-out: mean Papp(B to A)/Papp(A to B) efflux ratio", "value": "4.3 ± 1.1"},
      {"measurement": "DDI Potential", "setting": "CYP2C19; CYP2C19 reversible inhibition, FDA, EMA, PMDA guidance", "value": "Low risk"},
      {"measurement": "Maximum Unbound Plasma Concentration (Imax,u) to Ki,u Ratio", "setting": "CYP2C19; CYP2C19 reversible, 60 mg, Cmax 1.01 µM, fu,p 0.96, Ki,u = IC50/2", "value": "<0.019", "unit": "µM"},
      {"measurement": "IC50", "setting": "CYP2C19; reversible, CYP2C19 S-mephenytoin 4′-hydroxylation, read-out: Islatravir IC50", "value": "> 100", "unit": "µM"},
      {"measurement": "fraction unbound at 24 h, 0.1 µM", "setting": "[1]", "value": "> 0.84"},
      {"measurement": "time-dependent inhibition", "setting": "CYP2D6; CYP2D6, pre-incubation of 10 and 50 µM for up to 30 min", "value": "no time-dependent inhibition"},
      {"measurement": "DDI Potential", "setting": "CYP2D6; CYP2D6 time dependent inhibition", "value": "Low risk ^h"},
      {"measurement": "IC50", "setting": "CYP2D6; time dependent, CYP2D6, read-out: Islatravir IC50", "value": "> 50", "unit": "µM"},
      {"measurement": "drug-drug interaction, PK", "setting": "[2]; co-administered with doravirine", "value": "no clinically meaningful effects on the PK of either drug"},
      {"measurement": "drug-drug interaction", "setting": "[2]; co-administration with levonorgestrel/ethinyl estradiol", "value": "No significant drug–drug interactions"},
      {"measurement": "drug-drug interaction, PK", "setting": "[2]; with tenofovir disoproxil fumarate and dolutegravir", "value": "no meaningful drug–drug interactions"}
    ]}
  ]
}
